Test results from patent US20200069714A1, “AMINOGLYCOSIDE POTENTIATION FOR TREATMENT OF PULMONARY BACTERIAL INFECTION” (Enbiotix, Inc., priority 2016, published 2020).
Entries after “also recorded” stand apart in the source; their conditions may differ.

What was measured:
[1] = tested on: PAO1 laboratory strains of Pseudomonas aeruginosa; experiment: planktonic stationary phase (PSP) time kill potentiation assay, laboratory strain; assay type: cell-based
Procedure: (§1) The following examples use an in vitro potentiation assay, termed planktonic stationary phase (PSP) time kill assay. In this assay, bacterial cultures in planktonic stationary phase are used to select for bacterial persisters. Experiments are conducted using the time-kill method (CLSI M26), to evaluate bacterial strains, varying the concentration of aminoglycoside and potentiator. Cultures of persisters are generated by growing the bacteria in lysogeny broth (LB) medium for 16 hours. After 4 hr of exposure to the aminoglycoside plus potentiator combination in M9 minimal medium, cells are enumerated on LB plates.
Tobramycin has been measured at about 50 to 90 μg/ml of tobramycin in the lung epithelial lining after delivery of a 300 mg dose of tobramycin to cystic fibrosis patients by nebulizer. Ruddy J. et al., Sputum Tobramvcin Concentrations in Cystic Fibrosis Patients with Repeated Administration of Inhaled Tobramycin, J. of Aerosol Med. and Pulmon. Drug Del. 26(2):69-75 (2013).

[2] = cited from earlier work
[3] = tested on: P. aeruginosa mucoid and non-mucoid CF clinical isolates; experiment: colony biofilm assay with CF clinical isolates; assay type: cell-based; settings: fumarate with tobramycin
Procedure: (§2) The potentiation effect for tobramycin was tested in two biofilm assays: colony biofilm assay and 96-well plate biofilm assay.

[4] = potentiation in artificial sputum media; assay type: cell-based; settings: 15 mM fumarate; with and without amino acids
Procedure: In the presence of artificial sputum media with and without amino acids, some tolerance is observed, but the potentiation of tobramycin with 15 mM fumarate remains an improvement of several logs (FIG. 9).

[5] = tested on: tobramycin-sensitive COPD clinical isolates; experiment: PSP potentiation assay with COPD clinical isolates; assay type: cell-based, Pseudomonas aeruginosa; settings: 15 mM fumarate; early or late stage COPD isolates
[6] = potentiation in the presence of CF patient sputum; assay type: cell-based
[7] = tested on: Human Airway Epithelial cells infected with Pseudomonas; settings: in combination with tobramycin
Procedure: The impact of fumarate on Human Airway Epithelial cells was tested using an LDH assay. See Moreau-Marquis S, Tobramycin and FDA-Approved Iron Chelators Eliminate Pseudomonas aeruginosa Biofilms on Cystic Fibrosis Cells, Am. J. Respir. Cell Mol. Biol. Vol. 41, 305-313 (2009). LDH levels are measured in the medium (Apical and Basolateral fluids) and inside cells. Cytotoxicity can be expressed as: [LDHAP-BL/(LDHPAP-BL+LDHcells)]×100. […] Results are normalized to PAO1 untreated for 100% cytotoxicity. Significance (*) is between strain plus tobramycin and strain plus tobramycin with potentiator.

[8] = tested on: naïve bacterial biofilm; experiment: colony biofilm assay; assay type: cell-based; settings: 15 mM fumarate, naïve cultures
Procedure: as §2

[9] = tested on: naïve bacterial biofilm; experiment: 96-well plate biofilm assay; assay type: cell-based; settings: 15 mM fumarate, naïve cultures
Procedure: as §2

[10] = tested on: PAO1 strain; experiment: potentiation assay in the presence of tobramycin and azithromycin; assay type: cell-based, Pseudomonas aeruginosa; settings: 15 mM fumarate
Procedure: as §1
The potentiation effect was tested in the presence of both tobramycin and azithromycin. […] Results are for PAO1 strain.

Row | SMILES | tobramycin concentration at which maximum bactericidal activity was observed ([1]; with 15 mM fumarate (Met1)) | mean tobramycin concentration in expectorated sputum ([2]; 10 minutes after delivery of 300 mg by nebulizer, CF patients) | tobramycin concentration in the lung epithelial fluid (induced sputum), estimated ([2]; after 300 mg delivered by nebulizer) | effect on P. aeruginosa in colony biofilms from CF clinical isolates [3] | potentiation of tobramycin in artificial sputum media [4] | potentiation of tobramycin action against COPD strains [5] | potentiation in the presence of CF sputum [6] | fumarate concentration with potential to decrease airway inflammation [7] | potentiation of tobramycin in colony biofilm assay [8] | potentiation of tobramycin in 96-well plate biofilm assay [9] | potentiation of tobramycin in the presence of azithromycin [10] | potentiation of tobramycin sensitivity in the persister assay ([1]; 15 mM fumarate, PAO1, 4 hr exposure in M9 minimal medium)
1 | NC[C@H]1O[C@H](O[C@H]2[C@H](O)[C@@H](O[C@H]3O[C@H](CO)[C@@H](O)[C@H](N)[C@H]3O)[C@H](N)C[C@@H]2N)[C@H](N)C[C@@H]1O [tobramycin] | 16 µg/mL | 1,237 μg/g of sputum | ~128 µg/g | – | – | – | – | – | – | – | – | –
2 | O=C(O)/C=C/C(=O)O [fumarate] | – | – | – | eradication of P. aeruginosa | several logs | effective to potentiate tobramycin action against all COPD strains tested | 3 logs | above 7.5 mM | potentiates tobramycin action; also recorded: shows potentiation of tobramycin | potentiates tobramycin action; also recorded: shows potentiation of tobramycin | over 3 logs | over 5 logs
